Reference: patent US6399654B1, “Biflavanoids and derivatives thereof as antiviral agents” (priority 1995, dated 2002)
pEC50, pIC50: −log10 of the molar value. In brackets after ≈: the same amount, converted by molar mass. Several values for one entry are separate records, joined by “and”; a condition that tells them apart may be missing. Equal values may be shown once. Where a name gives a salt, the structure may show the parent alone. Read-outs that look alike come from different tables or passages of the source.

Legend:
Adenovirus Type 5 [1] = test: Adenovirus type 5 neutral red dye uptake in A549 cells; type: cell-based; conditions: Adenovirus Type 5
Adenovirus Type 5 [2] = test: microbe, parasite or virus in culture; type: cell-based
[3] = system: Human lung carcinoma (A549) cells; conditions: Adenovirus Type 5 test
[4] = system: Human lung carcinoma (A549) cells
2.2.15 cells = test: HBV cytotoxicity assay, neutral red dye uptake in 2.2.15 cells; type: cell-based; conditions: Homo sapiens, read-out: IC50 (toxicity, neutral red dye uptake)
Procedure: The toxicity of the test compounds in cultures of 2.2.15 cells, grown to confluence in 96-well flat-bottomed tissue culture plates and treated with compounds as described above, were assayed at four concentrations each in triplicate cultures, in 3 to 10-fold steps. Untreated control cultures were maintained on each plate. On each plate, wells containing no cells were used to correct for light scattering.
Stock solutions of text drugs were prepared in DMSO.

Hepatitis B Virus (HBV) = test: Inhibition of HBV replication in 2.2.15 cells, extracellular (virion) HBV DNA; conditions: for SI (CC50/EC90), HBV Virion: selective index;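 as to all read-outs here: extracellular virion HBV DNA in culture medium measured by slot blot hybridization with a 32P-labeled HBV probe, quantified against HBV DNA standards, after 9 days of daily dosing, compared with day 0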
HIV-1 RT = biological target: T1, HIV-1 RT (Human immunodeficiency virus type 1 group M subtype B, UniProt P03366); test: Anti-HIV-1 RT assay (recombinant enzyme); type: biochemical; conditions: for inhibition at 200 µg/mL: read-out: Anti-HIV-1 RT % Inhibition at 200 μg/ml
T1 construct: made in house; host or cells: Escherichia coli

HIV-1 (strain LAV-1) = test: microbe, parasite or virus in culture; type: cell-based; conditions: for pEC50: human PBM cells infected with HIV-1 (strain LAV), read-out: Ant-HIV-1 in PBM cells EC50; for Selective Index (SI): PBM cells
[5] = Cytotoxicity in uninfected PHA-stimulated human PBM cells; conditions: human
adenovirus type 1 = test: Activity against adenovirus type 1; type: cell-based; conditions: Human mastadenovirus C
VZV = VZV plaque reduction assay in HFF cells
HCMV = HCMV CPE inhibition in HFF cells
[6] = Cytotoxicity (CC50) in HFF cells in the herpes virus tests; conditions: human
HFF Cells = test: as above; conditions: HFF Cells, HSV-2 test
[7] = system: Influenza A (H1N1) Texas/36/91; test: microbe, parasite or virus in culture; type: cell-based, influenza A virus; conditions: Influenza A virus, MDCK; Influenza A (H1N1) Texas/36/91; read-out: Neutral Red EC50
in vitro [8] = conditions: dog, Neutral Red IC50 (cytotoxic)
[9] = system: Parainfluenza Type 3 Virus; test: organism not typed; type: cell-based; conditions: MA104, read-out: Neutral Red EC50
in vitro [10] = conditions: human
HSV-1 = HSV-1 CPE inhibition in HFF cells
in vitro [11] = conditions: dog
Measles Virus [12] = test: microbe, parasite or virus in culture; type: cell-based; conditions: Measles morbillivirus, BSC-1; Measles Virus; read-out: CPI Inhibition EC50
[13] = Cytotoxicity by neutral red dye uptake, MA-104 cells; conditions: African green monkey, Neutral Red IC50 (cytotoxic)
[14] = Cytotoxicity by neutral red dye uptake, BSC-1 cells; conditions: African green monkey
Measles Virus [15] = test: Measles virus neutral red dye uptake in BSC-1 cells; type: cell-based; conditions: Measles morbillivirus, BSC-1
in vitro [16] = conditions: African green monkey
[17] = system: Influenza A (H3N2) Beijing/32/92; test: microbe, parasite or virus in culture; type: cell-based, influenza A virus; conditions: Influenza A virus, MDCK; Influenza A (H3N2) Beijing/32/92; read-out: Neutral Red EC50
[18] = system: Respiratory Syncytial Virus; test: microbe, parasite or virus in culture; type: cell-based; conditions: human respiratory syncytial virus, MA104; read-out: CPE Inhibition EC50
[19] = system: Influenza A (H3N2) Beijing/32/92; test: microbe, parasite or virus in culture; type: cell-based, influenza A virus; conditions: Influenza A virus, MDCK; Influenza A (H3N2) Beijing/32/92; read-out: CPE Inhibition EC50
[20] = system: Respiratory Syncytial Virus; test: microbe, parasite or virus in culture; type: cell-based; conditions: human respiratory syncytial virus, MA104; read-out: Neutral Red EC50
HSV-2 = HSV-2 CPE inhibition in HFF cells
in vitro [21] = conditions: African green monkey; remark: listed apart in the source
[22] = system: Influenza A (H1N1) Texas/36/91; test: microbe, parasite or virus in culture; type: cell-based, influenza A virus; conditions: Influenza A virus, MDCK; Influenza A (H1N1) Texas/36/91; read-out: CPE Inhibition EC50
[23] = Cytotoxicity by neutral red dye uptake, A549 cells; conditions: human
Influenza B Panama/45/90 [24] = test: microbe, parasite or virus in culture; type: cell-based; conditions: Influenza B virus, MDCK; Influenza B Panama/45/90; read-out: CPE Inhibition EC50
Influenza B Panama/45/90 [25] = test: microbe, parasite or virus in culture; type: cell-based; conditions: Influenza B virus, MDCK, read-out: Neutral Red EC50
[26] = Hepatitis B virus, 216 h, read-out: EC50 (50% effective dose), HBV Virion, 2.2.15 cells, extracellular (virion) HBV DNA, 9 days treatment
[27] = Hepatitis B virus, 216 h, read-out: EC90 (90% effective dose), HBV Virion, 2.2.15 cells, extracellular (virion) HBV DNA, 9 days treatment
[28] = Hepatitis B virus, read-out: EC50, concentration necessary to decrease HBV DNA levels by 50%, 2.2.15 cells, combinations: with respect to RF
[29] = Hepatitis B virus, read-out: EC90, concentration necessary to decrease HBV DNA levels by 90%, 2.2.15 cells, combinations: with respect to RF

In the case of Nc1ncnc2c1ncn2C[C@@H](CO)OCP(=O)(O)O [HPMPA, (S)-1-(3-hydroxy-2-phosophonylmethoxypropyl)adenine, reference compound], the “Neutral Red EC50” value (Adenovirus Type 5 [1]) was 8 µg/mL, the “CPE Inhibition EC50” value (Adenovirus Type 5 [2]) was 30 µg/mL and the “CPE Inhibition IC50 (cytotoxic)” value [3] was 80 µg/mL. For the same compound, the “Neutral Red IC50 (cytotoxic)” value [4] was 40 µg/mL.

Compound Nc1ccn([C@@H]2CS[C@H](CO)O2)c(=O)n1 [Lamivudine (3TC), lamivudine, reference compound] has a pIC50 (2.2.15 cells) of 2.75, a pEC50 (Hepatitis B Virus (HBV); [26]) of 7.42 and an EC90 (Hepatitis B Virus (HBV); [27]) of 0.16 µM. The pEC50 (Hepatitis B Virus (HBV); [28]) was 7.42, the EC90 (Hepatitis B Virus (HBV); [29]) was 0.16 µM and the “SI (CC50/EC90), HBV Virion” value (Hepatitis B Virus (HBV)) was 11200.

With O=C1c2c(O)cc(O)cc2O[C@H](c2ccc(O)cc2)[C@H]1c1c(O)cc(O)c2c(=O)cc(-c3ccc(O)c(O)c3)oc12 [Morelloflavone(7), morelloflavone] the pIC50 (HIV-1 RT; Anti-HIV-1 RT IC50, values in parentheses or in words) was 3.93 and 3.94, the pIC50 (HIV-1 RT; HIV-1 RT IC50 (50% inhibition dose)) was 3.93 and the inhibition at 200 µg/mL (HIV-1 RT) was 99.2%. The “anti-HIV-1 activity in PBM cells (in words)” value (HIV-1 (strain LAV-1)) was “potent inhibitory activity”, the pEC50 (HIV-1 (strain LAV-1); Human immunodeficiency virus 1, PBMC) was 5.24 and the EC50 (HIV-1 (strain LAV-1); Human immunodeficiency virus 1, PBMC, read-out: EC50 (50% effective dose) in PBM cells infected with HIV-1, whole cell assay) was 5.7 µg/mL. The “Selective Index (SI)” value (HIV-1 (strain LAV-1)) was 12, the “Selective Index (SI)” value (HIV-1 (strain LAV-1); listed as Morelloflavone) was “approximately 10” and the pEC50 (HIV-1 (strain LAV-1)) was 5.10. For the same compound, the “EC50 (50% effective dose) in PBM cells infected with HIV-1” value (HIV-1 (strain LAV-1); whole cell assay) was 8.0 µg/mL and the pIC50 [5] was 4.09.

With Nc1nc2c(ncn2CCC(CO)CO)c(=O)[nH]1 [Penciclovir, penciclovir, reference compound] the pIC50 (2.2.15 cells) was 3.36, the pEC50 (Hepatitis B Virus (HBV); [26]) was 6.72 and the EC90 (Hepatitis B Virus (HBV); [27]) was 0.92 µM. For the same compound, the pEC50 (Hepatitis B Virus (HBV); [28]) was 6.72, the EC90 (Hepatitis B Virus (HBV); [29]) was 0.92 µM and the “SI (CC50/EC90), HBV Virion” value (Hepatitis B Virus (HBV)) was 471.

With O=c1cc(-c2ccc(O)c(-c3c(O)cc4oc(-c5ccc(O)cc5)cc(=O)c4c3O)c2)oc2cc(O)cc(O)c12 [Robustaflavone sodium salt, Robustaflavone tetrasodium salt] the pEC50 (adenovirus type 1) was 4.49, the pIC50 (adenovirus type 1; 50% cell inhibitory (cytotoxic) concentration, read-out: IC50 in the adenovirus type 1 test) was under 3.80 and the “fold less active/potent than robustaflavone against HBV” value (Hepatitis B Virus (HBV); in vitro assay against HBV) was “approximately 10 fold”. For the same compound, the pEC50 (Hepatitis B Virus (HBV); read-out: EC50 (50% effective dose), HBV Virion, 2.2.15 cells, extracellular (virion) HBV DNA, 9 days treatment) was 5.51, the EC90 (Hepatitis B Virus (HBV); read-out: EC90 (90% effective dose), HBV Virion, 2.2.15 cells, extracellular (virion) HBV DNA, 9 days treatment) was 12 µM and the “SI (CC50/EC90), HBV Virion” value (Hepatitis B Virus (HBV)) was 88.

With COc1ccc(-c2cc(=O)c3c(OC)cc(OC)c(C4C(=O)c5c(OC)cc(OC)cc5OC4c4ccc(OC)cc4)c3o2)cc1 (stereo not drawn) [Volkensiflavone hexamethyl ether (6), volkensiflavone hexamethyl ether] the “VZV SI (CC50/EC50)” value (VZV; HFF Cells) was 3.4, the EC50 (VZV; Human alphaherpesvirus 3, HFF, read-out: VZV Plaque Reduction EC50) was 3.3 µg/mL (≈ 5.28 µM) and the “HCMV SI (CC50/EC50)” value (HCMV; HFF Cells) was 0. It also gave an EC50 (HCMV; Human betaherpesvirus 5, HFF, read-out: HCMV CPE Inhibition EC50) of over 100 µg/mL, a CC50 at 3 days [6] of over 100 µg/mL and a CC50 at 10 days [6] of 11.1 µg/mL (≈ 17.8 µM). For the same compound, the CC50 at 14 days [6] was over 100 µg/mL, the “HSV-2 CPE Inhibition CC50” value (HFF Cells) was over 100 µg/mL and the EC50 [7] was about 100 µg/mL (≈ 160 µM). The IC50 (in vitro [8]; Influenza A (H1N1) test) was about 100 µg/mL (≈ 160 µM), the IC50 (in vitro [8]; Influenza A (H3N2) test) was about 100 µg/mL (≈ 160 µM) and the IC50 (in vitro [8]; Influenza B test) was about 100 µg/mL (≈ 160 µM). The EC50 [9] was over 32 µg/mL, the IC50 (in vitro [10]) was 47 µg/mL (≈ 75.2 µM) and the “activity against HIV-1 RT (in words)” value (HIV-1 RT) was “inactive”. The inhibition at 200 µg/mL (HIV-1 RT) was 0%, the “Anti-HIV-1 RT IC50” value (HIV-1 RT; values in parentheses or in words) was “Inactive” and the “HSV-1 SI (CC50/EC50)” value (HSV-1; HFF Cells) was 0. It also gave an EC50 (HSV-1; Human alphaherpesvirus 1, HFF, read-out: HSV-1 CPE Inhibition EC50) of over 100 µg/mL, an IC50 (in vitro [11]; CPE Inhibition IC50 (50% cell inhibitory (cytotoxic) concentration), Influenza A (H1N1) test) of under 24 µg/mL and an IC50 (in vitro [11]; CPE Inhibition IC50 (cytotoxic), Influenza A (H3N2) test) of about 100 µg/mL (≈ 160 µM). It also gave an IC50 (in vitro [11]; CPE Inhibition IC50 (cytotoxic), Influenza B test) of about 100 µg/mL (≈ 160 µM), an EC50 (Adenovirus Type 5 [1]; Human mastadenovirus C, A549, read-out: Neutral Red EC50) of over 100 µg/mL and an EC50 (Measles Virus [12]) of under 70 µg/mL. The IC50 ([13]; Parainfluenza Type 3 Virus test) was about 33 µg/mL (≈ 52.8 µM), the IC50 ([13]; Respiratory Syncytial Virus test) was about 59 µg/mL (≈ 94.5 µM) and the IC50 [14] was under 13 µg/mL. The EC50 (Measles Virus [15]) was under 7 µg/mL, the IC50 (in vitro [16]; CPE Inhibition IC50 (cytotoxic), Respiratory Syncytial Virus test) was about 30 µg/mL (≈ 48 µM) and the IC50 (in vitro [16]; CPI Inhibition IC50 (cytotoxic), Parainfluenza Type 3 Virus test) was about 15 µg/mL (≈ 24 µM). For the same compound, the EC50 [17] was about 100 µg/mL (≈ 160 µM), the EC50 [18] was about 18 µg/mL (≈ 28.8 µM) and the EC50 [19] was about 100 µg/mL (≈ 160 µM). The EC50 [20] was over 32 µg/mL, the “HSV-2 SI (CC50/EC50)” value (HSV-2; HFF Cells) was 0 and the EC50 (HSV-2; Human alphaherpesvirus 2, HFF, read-out: HSV-2 CPE Inhibition EC50) was over 100 µg/mL. The “anti-HBV activity (in words)” value (Hepatitis B Virus (HBV); 2.2.15 cells) was “moderate anti-HBV activity”, the pEC50 (Hepatitis B Virus (HBV); [26]) was 4.96 and the EC90 (Hepatitis B Virus (HBV); [27]) was 108 µM. For the same compound, the “SI (CC50/EC90), HBV Virion” value (Hepatitis B Virus (HBV)) was 1.3, the IC50 (in vitro [21]) was under 60 µg/mL and the EC50 [22] was about 100 µg/mL (≈ 160 µM). For the same compound, the IC50 [23] was 50 µg/mL (≈ 80 µM), the EC50 (Influenza B Panama/45/90 [24]) was 2.6 µg/mL (≈ 4.16 µM) and the EC50 (Influenza B Panama/45/90 [25]) was under 20 µg/mL.
